Measured values as given in patent US10792274B2, “Dehydroacetic acid (DHAA) and derivative for uses in treating cancer” (Emory University, priority 2016, dated 2020).
Entries after “also recorded” stand apart in the source; their conditions may differ.

Tests used:
[1] = target: BRAF WT-MEK1 binding (Homo sapiens, UniProt P15056); experiment: cell-free in vitro coupled protein-protein binding and kinase assay; type: biochemical; conditions: in the presence of acetoacetate
Protocol: (§1) Whether DHAA inhibits BRAF V600E directly was examined. […] In contrast, DHAA had no effect on BRAF WT-MEK1 binding or MEK1 phosphorylation in a control experiment using purified BRAF WT incubated with MEK1 in the presence of acetoacetate (FIG. 4I left panel). […] This is physiologically consistent with the acetoacetate levels determined as approximately 300 μM in stable HMGCL knockdown A375 and A2058 cells.

[2] = target: BRAF V600E-MEK1 binding (Homo sapiens, UniProt P15056, V600E); experiment: as above; type: biochemical
Protocol: as §1

[3] = target: T1, FLAG-tagged BRAF V600E (Homo sapiens, UniProt P15056, V600E); experiment: cellular thermal shift assay, lysates of transfected 293T cells; type: binding; conditions: 400 μM
T1 construct: FLAG; expressed in transfected cells; host or cells: 293T cells (lysates)
From the text: (§2) Whether functional inhibition of acetoacetate would attenuate BRAF V600E tumor growth was examined. Dehydroacetic acid (DHAA) (FIG. 4A) is an inhibitory homologue of acetoacetate.

[4] = system: BRAF V600E-expressing human melanoma A2058 cells; experiment: A2058 xenograft in nude mice; type: in vivo
From the text: Xenograft tumor growth and in nude mice inoculated with BRAF V600E-positive human melanoma A2058 fed with normal or high-fat diets followed by intraperitoneal injection with DHAA.

[5] = system: Me1-ST cells expressing BRAF V600E; experiment: immortalized melanocyte treatment: proliferation, MEK-ERK activation, BRAF-MEK1 binding; type: cell-based
[6] = system: Me1-ST parental or control cells expressing BRAF WT or tBRAF; experiment: as above; type: cell-based
[7] = serum and tumor metabolite levels and body weight of xenograft mice; type: in vivo
[8] = system: SK-MEL-5 cells expressing BRAF V600E; experiment: melanoma cell proliferation; type: cell-based
[9] = target: BRAF V600R (Homo sapiens, UniProt P15056, V600R); experiment: 14C-labeled acetoacetate binding assay; conditions: in the presence of 300 μM 14C-labeled acetoacetate
Protocol: (§3) BRAF wild type and mutant proteins were incubated with increasing concentrations of ^14C-labeled acetoacetate.
(§4) A series of radiometric metabolite-protein interaction analyses were performed using ^14C labeled acetoacetate incubated with purified BRAF variants in the presence and absence of DHAA.

[10] = target: BRAF V600D (Homo sapiens, UniProt P15056, V600D); experiment: 14C-labeled acetoacetate binding assay; conditions: in the presence of 300 μM 14C-labeled acetoacetate
Protocol: as §3, §4

[11] = target: T2, BRAF V600E (Homo sapiens, UniProt P15056, V600E); experiment: thermal melt shift assay, purified recombinant protein; type: binding
Protocol: Arrows in the panel indicate melting temperatures at 0 μM (left) and 400 μM (right).
as §2

[12] = system: hepatomas; conditions: rats fed 4-(methylamino)azobenzene; cited from earlier work
[13] = target: T2, BRAF V600E; experiment: BRAF V600E kinase activity (Vmax and Km), MEK1 as substrate; type: biochemical
Protocol: as §1

[14] = target: T2, BRAF V600E; experiment: 14C-labeled acetoacetate binding assay (radiometric metabolite-protein interaction)
Protocol: as §3, §4

[15] = system: A375 cells expressing BRAF V600E; experiment: melanoma cell treatment: proliferation, MEK1/ERK1/2 phosphorylation, BRAF-MEK1 binding; type: cell-based, human
[16] = system: WM-266-4 cells expressing BRAF V600D; experiment: melanoma cell proliferation; type: cell-based
[17] = chronic injection of DHAA to nude mice (tolerability); type: in vivo
[18] = system: BRAF V600E-expressing human melanoma A375 cells; experiment: A375 xenograft in nude mice; type: in vivo
[19] = system: A2058 cells expressing BRAF V600E; experiment: melanoma cell treatment: proliferation, MEK1/ERK1/2 phosphorylation, BRAF-MEK1 binding; type: cell-based, human
[20] = BRAF V600E pre-treated with acetoacetate (300 μM)
[21] = DHAA at 200 μM, acetoacetate at 300 μM
[22] = co-treatment with DHAA, high-fat diet
[23] = tumors harvested from xenograft mice

T2 sequence (P15056 whole entry V600E): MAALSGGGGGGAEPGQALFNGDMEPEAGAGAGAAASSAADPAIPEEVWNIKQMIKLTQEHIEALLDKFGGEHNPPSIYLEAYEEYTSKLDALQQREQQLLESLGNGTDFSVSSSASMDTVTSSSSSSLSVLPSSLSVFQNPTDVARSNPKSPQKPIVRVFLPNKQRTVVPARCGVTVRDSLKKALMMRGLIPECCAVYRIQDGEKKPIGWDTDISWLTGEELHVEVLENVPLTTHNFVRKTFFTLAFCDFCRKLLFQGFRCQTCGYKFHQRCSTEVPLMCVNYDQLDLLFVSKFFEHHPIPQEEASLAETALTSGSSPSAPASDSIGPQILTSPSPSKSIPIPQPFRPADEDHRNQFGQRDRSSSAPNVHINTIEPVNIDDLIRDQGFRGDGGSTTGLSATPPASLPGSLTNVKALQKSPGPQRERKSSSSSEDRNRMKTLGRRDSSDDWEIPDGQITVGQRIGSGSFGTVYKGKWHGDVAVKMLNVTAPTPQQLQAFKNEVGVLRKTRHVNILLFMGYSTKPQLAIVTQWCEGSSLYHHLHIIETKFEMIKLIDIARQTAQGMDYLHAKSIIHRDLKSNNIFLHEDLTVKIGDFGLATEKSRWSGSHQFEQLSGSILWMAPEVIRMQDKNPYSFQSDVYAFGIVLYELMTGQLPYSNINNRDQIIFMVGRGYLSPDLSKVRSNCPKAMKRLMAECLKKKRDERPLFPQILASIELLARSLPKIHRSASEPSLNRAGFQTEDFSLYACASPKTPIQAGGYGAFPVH
Chain of BRAF V600E-MEK1 binding (P15056 whole entry V600E): as above
T1 sequence (P15056 whole entry V600E): as above
Chain of BRAF WT-MEK1 binding (P15056 whole entry): as the sequence (P15056 whole entry V600E) above, with E600V counted along it
Chain of BRAF V600D (P15056 whole entry V600D): as the sequence (P15056 whole entry V600E) above, with E600D counted along it
Chain of BRAF V600R (P15056 whole entry V600R): as the sequence (P15056 whole entry V600E) above, with E600R counted along it

CC(=O)c1c(O)oc(C)cc1=O [DHAA, 3-Acetyl-2-hydroxy-6-methyl-4H-pyran-4-one]
BRAF WT-MEK1 binding [1]: had no effect
MEK1 phosphorylation [1]: had no effect
acetoacetate-enhanced MEK1 binding to BRAF V600E [2, 20]: effectively inhibited
phosphorylation of V600E-bound MEK1 [2, 20]: effectively inhibited
BRAF V600E-MEK1 binding and phosphorylation of MEK1 enhanced by acetoacetate [2, 21]: inhibit BRAF V600E-MEK1 binding and phosphorylation of MEK1
affinity for BRAF V600E relative to acetoacetate [3]: higher affinity than acetoacetate
binding in cellular thermal shift assay [3]: bound only to BRAF V600E
high-fat diet-dependent enhancement of BRAF V600E-MEK1 binding in tumors ([4]; DHAA, high-fat diet): significantly attenuated
high-fat diet-dependent enhancement of cell proliferation rates (Ki67) in tumors ([4]; DHAA, high-fat diet): significantly attenuated
high-fat diet-dependent enhancement of phosphorylation of MEK1 and ERK1/2 in tumors ([4]; DHAA, high-fat diet): significantly attenuated
high-fat diet-enhanced tumor growth potential [4, 22]: effectively reversed the enhanced tumor growth potential; also recorded: reverses high-fat diet-enhanced BRAF V600E tumor growth
HMGCL expression in tumors ([4]; mouse, in vivo): without affecting HMGCL expression
BRAF V600E-MEK1 binding in tumors ([4]; single agent): reduced binding between BRAF V600E-MEK1
cell proliferation rates in tumors (Ki67 IHC staining) ([4]; single agent): reduced cell proliferation rates
phosphorylation of MEK1 and ERK1/2 in tumors ([4]; single agent): selectively inhibited phosphorylation of MEK1 and ERK1/2
xenograft tumor growth (growth rates, sizes, masses) ([4]; single agent, normal diet): effectively inhibited xenograft tumor growth rates, sizes and masses
BRAF V600E-MEK1 binding [5]: selectively inhibited
MEK-ERK activation [5]: selectively inhibited
cell proliferation [5]: selectively inhibited
BRAF-MEK1 binding [6]: but not parental or control cells
body weight ([7]; effect of treatment): did not affect body weight
serum cholesterol levels ([7]; effect of treatment): did not affect; also recorded: had no effect
serum glucose levels ([7]; effect of treatment): did not affect; also recorded: had no effect
serum levels of 3HB (β-hydroxybutyrate) ([7]; effect of treatment): did not affect; also recorded: had no effect
serum levels of acetoacetate ([7]; effect of treatment): had no effect
acetoacetate levels in tumors [7, 23]: did not affect
β-hydroxybutyrate levels in tumors [7, 23]: did not affect
cell proliferation [8]: selectively inhibited cell proliferation
Ki [9]: ~91 µM
Ki [10]: ~88 µM
binding in thermal melt shift assay [11]: directly binds
induction of hepatomas [12]: inhibitory effect
activating effect of acetoacetate on BRAF V600E (increased Vmax, decreased Km) ([13]; in the presence of acetoacetate (300 μM)): effectively reversed the activating effect of acetoacetate
BRAF V600E kinase activity (Vmax and Km) ([13]; increasing concentrations of DHAA alone): did not affect BRAF V600E kinase activity
competition with acetoacetate for BRAF V600E binding ([14]; BRAF V600E pre-treated with 14C-labeled acetoacetate, increasing concentrations of DHAA): competed with acetoacetate for BRAF V600E binding in a dose-dependent manner
block of acetoacetate binding by pre-treatment ([14]; DHAA 200 μM pre-treatment, 14C-labeled acetoacetate up to 400 μM): sufficient to block acetoacetate binding
competition with acetoacetate for BRAF V600E binding [14, 21]: sufficient to compete
Ki ([14]; in the presence of 300 μM 14C-labeled acetoacetate): ~88 µM
binding ability of BRAF V600E mutant forms to acetoacetate ([14]; treatment with DHAA, BRAF V600E and tBRAF V600E): significant decrease in binding ability
BRAF V600E-MEK1 association [15]: selectively inhibited
cell proliferation [15]: selectively inhibited cell proliferation; also recorded: selectively inhibits
phosphorylation of MEK1 and ERK1/2 [15]: selectively inhibited phosphorylation of MEK1 and ERK1/2
cell proliferation [16]: selectively inhibited cell proliferation
histopathological analyses and weights of diverse organs ([17]; 200 mg/kg/day intraperitoneally, ~4 weeks): did not cause notable differences
components of the gut microbiota ([17]; chronic treatment): altered proportions but no loss of any components
effect on the mouse gut microbiome ([17]; chronic treatment): had no obvious effect
total DNA amount extracted from bacteria in mouse feces ([17]; chronic treatment): unaltered total DNA amount
well-tolerated dose ([17]; intraperitoneally, ~4 weeks): 200 mg/kg/day
toxicity in vivo ([17]; mouse, in vivo): does not cause obvious toxicity in vivo
complete blood counts (CBC) or hematopoietic properties ([17]; representative A375 xenograft mice, compared to the water-treated group): did not alter
high-fat diet-dependent enhancement of BRAF V600E-MEK1 binding in tumors ([18]; DHAA, high-fat diet): significantly attenuated
high-fat diet-dependent enhancement of cell proliferation rates (Ki67) in tumors ([18]; DHAA, high-fat diet): significantly attenuated
high-fat diet-dependent enhancement of phosphorylation of MEK1 and ERK1/2 in tumors ([18]; DHAA, high-fat diet): significantly attenuated
high-fat diet-enhanced tumor growth potential [18, 22]: effectively reversed the enhanced tumor growth potential
HMGCL expression in tumors ([18]; mouse, in vivo): without affecting HMGCL expression
BRAF V600E-MEK1 binding in tumors ([18]; single agent): reduced binding between BRAF V600E-MEK1
cell proliferation rates in tumors (Ki67 IHC staining) ([18]; single agent): reduced cell proliferation rates
phosphorylation of MEK1 and ERK1/2 in tumors ([18]; single agent): selectively inhibited phosphorylation of MEK1 and ERK1/2
xenograft tumor growth (growth rates, sizes, masses) ([18]; single agent, normal diet): effectively inhibited xenograft tumor growth rates, sizes and masses
BRAF V600E-MEK1 association [19]: selectively inhibited
cell proliferation [19]: selectively inhibited cell proliferation; also recorded: selectively inhibits
phosphorylation of MEK1 and ERK1/2 [19]: selectively inhibited phosphorylation of MEK1 and ERK1/2
